Assay [1] addresses T1, human sphingosine-1-phosphate receptor 1 (S1P1) (Homo sapiens, UniProt P21453). Kind of assay: Inhibition of cAMP production (HTRF cAMP HiRange), S1P1 CHO-K1 cells. The format is cell-based. As to conditions: for Emax: CHO-K1, efficacy normalized to maximum efficacy of fingolimod, read-out: hS1P1 CAMP SPAN; for EC50: read-out: hS1P1 CAMP pEC50 (converted). Put shortly: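 CHO-K1 cells co-expressing human S1P1 (C-terminal ProLink tag) and EA-β-arrestin2, plated overnight; after 30 min compound incubation at 37 °C, intracellular cAMP measured by HTRF TR-FRET following 1 h at room temperature. Values normalized to fingolimod.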
Target sequence in this assay (P21453 whole entry): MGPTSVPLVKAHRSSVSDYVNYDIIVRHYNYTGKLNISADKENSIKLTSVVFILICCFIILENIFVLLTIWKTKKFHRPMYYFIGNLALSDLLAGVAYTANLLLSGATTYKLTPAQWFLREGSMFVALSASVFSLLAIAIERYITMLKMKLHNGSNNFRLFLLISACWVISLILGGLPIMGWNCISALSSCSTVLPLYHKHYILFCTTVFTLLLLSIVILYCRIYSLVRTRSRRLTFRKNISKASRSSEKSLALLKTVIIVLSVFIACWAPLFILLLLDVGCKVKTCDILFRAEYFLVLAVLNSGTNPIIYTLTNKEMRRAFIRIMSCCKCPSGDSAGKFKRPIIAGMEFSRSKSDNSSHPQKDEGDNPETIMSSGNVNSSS

Assay [2] addresses T1, human sphingosine-1-phosphate receptor 1 (S1P1). As to the kind of experiment: β-Arrestin2 recruitment assay (PathHunter), S1P1 CHO-K1 cells. The format is cell-based. As to conditions: for Emax: efficacy normalized to maximum efficacy of fingolimod, read-out: hS1P1 B-arrestin2 SPAN; for EC50: β-arrestin2 recruitment, read-out: hS1P1 B-arrestin2 pEC50 (converted). How it is done: Stable clonal Chinese hamster ovary K1 (CHO-K1) cells co-expressing EA-β-arrestin2 and the human sphingosine-1-phosphate receptor 1 (NM_001400, S1P1) with a C-terminal Prolink™ tag were purchased from DiscoverX corporation (Cat #: 93-0207C2).
Cell lines were cultured in AssayComplete™ Media 6 (DiscoverX Corporation, Cat #: 920018GF2) at 37° C. and 5% CO2 in a humidified CO2 and temperature-controlled incubator. To begin assay plating, cells were washed with Dulbecco's phosphate buffered saline (CellGro, Cat #: 21-031-CV) and lifted from the culturing flask by incubation (37° C., 5 min) with CellStripper (Cellgro, Cat #: 25-056-CI). […] Plated cells were incubated overnight at 37° C. and 5% CO2 in a humidified CO2 and temperature-controlled incubator.
Agonist-promoted β-arrestin2 recruitment to the sphingosine-1-phosphate 1 receptor was determined using the β-arrestin PathHunter® Detection kit (DiscoverX Corporation, Cat #: 93-0001). […] In cells that stably express these fusion proteins, stimulation with a cognate agonist results in the interaction of β-arrestin2 and the Prolink™-tagged GPCR. This allows the complementation of the two β-galactosidase fragments and results in the formation of a functional enzyme with β-galactosidase activity. […] Following a 60 minute incubation at 37° C. and 5% CO2 in a humidified CO2 and temperature-controlled incubator, the components of the β-arrestin PathHunter® Detection kit were added as per the manufacturer's instructions. After an hour incubation at room temperature, plates were analyzed by a BMG PheraStar microplate reader.
These values are normalized to fingolimod, a known agonist of the sphingosine-1-phosphate 1 receptor.
Target sequence in this assay (P21453 whole entry): as above
Target sequence in this assay (P32121 whole entry partner): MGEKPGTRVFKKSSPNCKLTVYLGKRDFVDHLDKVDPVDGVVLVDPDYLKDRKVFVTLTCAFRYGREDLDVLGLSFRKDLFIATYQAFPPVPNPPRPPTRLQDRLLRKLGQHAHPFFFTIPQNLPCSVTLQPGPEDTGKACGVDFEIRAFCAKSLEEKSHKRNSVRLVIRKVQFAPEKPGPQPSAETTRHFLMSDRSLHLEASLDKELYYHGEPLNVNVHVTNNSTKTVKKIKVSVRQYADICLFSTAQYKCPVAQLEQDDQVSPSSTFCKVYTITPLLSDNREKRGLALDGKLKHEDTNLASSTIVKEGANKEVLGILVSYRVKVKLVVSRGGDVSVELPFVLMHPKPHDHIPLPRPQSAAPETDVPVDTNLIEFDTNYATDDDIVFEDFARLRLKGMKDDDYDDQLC
For orientation: Activated receptors often draw arrestin, which recruitment assays turn into a signal.

Setting [3] is: inhibition of cAMP production, potency.
The mark [4] stands for this setting: CHO-K1, β-arrestin2 recruitment.
Setting [5] is: inhibition of cAMP production, S1P1.

This note sets out measurements from patent US20230114241A1, “METHODS OF TREATING EPILEPSY USING THE SAME” (Trevena, Inc., priority 2019, published 2023).

Each structure is given as a SMILES string. A value given as a limit tells only on which side of the number the result lay.

Consider `CCC1(CC)CC(=O)c2cc(-c3nc(-c4ccc(C)s4)no3)ccc2O1` [Compound 34, 2,2-diethyl-6-(3-(5-methylthiophen-2-yl)-1,2,4-oxadiazol-5-yl)chroman-4-one], for which the values for the Emax in assay [1] (inhibition of cAMP production) and in assay [2] (setting [4]) were more than 75% and less than 75%, respectively. Further, the EC50 in assay [1] (setting [3]) is more than 316 nM; in assay [2] (potency), less than 10000 nM.
The corresponding values for `Cc1ccc(-c2nc(-c3ccc4c(c3)nnn4C(C)C)no2)c(C)c1` [Compound 166, 5-(2,4-dimethylphenyl)-3-(1-isopropyl-1H-benzo[d][1,2,3]triazol-5-yl)-1,2,4-oxadiazole] are less than 75%, more than 75%, more than 316 nM and more than 10000 nM.
For `CCC1(CC)CC(=O)c2cc(-c3nc(-c4cccc(O)c4)no3)ccc2O1` [Compound 227, 2,2-diethyl-6-[3-(3-hydroxyphenyl)-1,2,4-oxadiazol-5-yl]chroman-4-one], the Emax in assay [1] (inhibition of cAMP production) is less than 75%; in assay [2] (setting [4]), more than 75%. Also, the EC50 was less than 316 nM in assay [1] (setting [3]) and more than 10000 nM in assay [2] (potency).
The corresponding values for `COc1ccccc1-c1nsc(-c2ccc3c(c2)nnn3C(C)C)n1` [Compound 213, 5-[3-(2-methoxy-phenyl)-1,2,4-thiadiazol-5-yl]-1-(propan-2-yl)-1H-1,2,3-benzotriazole] are more than 75%, more than 75%, more than 316 nM and more than 10000 nM.
As to `CCC1(CC)CC(=O)c2cc(-c3nc(-c4ccc5c(c4)CC(=O)N5)no3)ccc2O1` [Compound 416, 5-(5-(2,2-diethyl-4-oxochroman-6-yl)-1,2,4-oxadiazol-3-yl)indolin-2-one], the Emax in assay [1] and in assay [2] (CHO-K1) was more than 75% each time. Further, the EC50 in assay [1] (setting [5]) is less than 316 nM; in assay [2] (S1P1) it was less than 10000 nM.
Take `COc1cccc(F)c1-c1noc(-c2ccc3c(ccn3C(C)C)c2)n1` [Compound 328, 3-(2-fluoro-6-methoxy-phenyl)-5-(1-isopropyl-indol-5-yl)-1,2,4-oxadiazole]: the Emax in assay [1] (inhibition of cAMP production) and in assay [2] (setting [4]) was more than 75% throughout. The values for the EC50 in assay [1] (setting [3]) and in assay [2] (potency) were more than 316 nM and less than 10000 nM, respectively.
For the compound `CC(C)(CO)n1nnc2cc(-c3noc(-c4ccc5nc[nH]c5c4)n3)ccc21` [Compound 642, 2-(5-(5-(1H-benzo[d]imidazol-6-yl)-1,2,4-oxadiazol-3-yl)-1H-benzo[d][1,2,3]triazol-1-yl)-2-methylpropan-1-ol], the Emax in assay [1] and in assay [2] (CHO-K1) was less than 75% each time. Also, the EC50 in assay [1] (setting [5]) was more than 316 nM.
As for `FC(F)(F)c1cccc(-c2nc(-c3ccc4c(c3)nnn4C3CCCC3)no2)c1` [Compound 12, 3-(1-cyclopentyl-1H-benzo[d][1,2,3]triazol-5-yl)-5-(3-(trifluoro-methyl)phenyl)-1,2,4-oxadiazole], the Emax in assay [1] (inhibition of cAMP production) and in assay [2] (setting [4]) was less than 75% in each case. The EC50 in assay [1] (setting [3]) was more than 316 nM; in assay [2] (potency), more than 10000 nM.
`COc1ccccc1-c1c[nH]c(-c2ccc3c(c2)nnn3C(C)C)c1` [Compound 566, 5-[4-(2-methoxyphenyl)-1H-pyrrol-2-yl]-1-(propan-2-yl)-1H-1,2,3-benzotriazole]: the Emax in assay [1] and in assay [2] (CHO-K1) was less than 75% each time. Also, the figures for the EC50 in assay [1] (setting [5]) and in assay [2] (S1P1) were more than 316 nM and more than 10000 nM, respectively.
`CCc1ccccc1-c1nc(-c2ccc3c(c2)nnn3CC(C)(C)CO)no1` [Compound 527, 3-(5-(5-(2-ethylphenyl)-1,2,4-oxadiazol-3-yl)-1H-benzo[d][1,2,3]triazol-1-yl)-2,2-dimethylpropan-1-ol]: the Emax in assay [1] and in assay [2] (CHO-K1) was more than 75% throughout. In addition, the EC50 in assay [1] (setting [5]) is more than 316 nM; in assay [2] (S1P1), more than 10000 nM.
Turning to `Cc1ccc(-c2nc(-c3ccc4c(c3)nnn4C3CCCC3)no2)cc1` [Compound 235, 3-(1-cyclopentyl-1H-benzo[d][1,2,3]triazol-5-yl)-5-(p-tolyl)-1,2,4-oxadiazole], the Emax in assay [1] (inhibition of cAMP production) and in assay [2] (setting [4]) was less than 75% throughout. In addition, the EC50 in assay [1] (setting [3]) was more than 316 nM; in assay [2] (potency), more than 10000 nM.
With `Cc1ccsc1-c1nc(-c2ccc3c(c2)nnn3CC(C)(C)CO)no1` [Compound 524, 2,2-dimethyl-3-(5-(5-(3-methylthiophen-2-yl)-1,2,4-oxadiazol-3-yl)-1H-benzo[d] [1,2,3]triazol-1-yl)propan-1-ol], the Emax was more than 75% in assay [1] and less than 75% in assay [2] (CHO-K1). Besides, the EC50 in assay [1] (setting [5]) was less than 316 nM; in assay [2] (S1P1), less than 10000 nM.
For `CCC1(CC)CC(=O)c2cc(-c3nc(-c4ccc5ncccc5c4)no3)ccc2O1` [Compound 521, 2,2-diethyl-6-(3-(quinolin-6-yl)-1,2,4-oxadiazol-5-yl)chroman-4-one], the Emax in assay [1] and in assay [2] (CHO-K1) was less than 75% in each case. Also, the EC50 was more than 316 nM in assay [1] (setting [5]) and more than 10000 nM in assay [2] (S1P1).
With `CC(C)n1ccc2cc(-c3noc(-c4ccccc4Br)n3)ccc21` [Compound 388, 5-(2-bromophenyl)-3-(1-isopropyl-1H-indol-5-yl)-1,2,4-oxadiazole], the Emax in assay [1] and in assay [2] (CHO-K1) was more than 75% each time. In addition, the EC50 in assay [1] (setting [5]) is less than 316 nM; in assay [2] (S1P1), less than 10000 nM.
With `CC(C)Oc1ccc(-c2ncc(-c3ccc4c(c3)nnn4C(C)C)cn2)cc1C#N` [Compound 595, 2-isopropoxy-5-(5-(1-isopropyl-1H-benzo[d][1,2,3]triazol-5-yl)pyrimidin-2-yl)benzonilrile], the Emax in assay [1] and in assay [2] (CHO-K1) was more than 75% each time. Further, the EC50 is less than 316 nM in assay [1] (setting [5]) and less than 10000 nM in assay [2] (S1P1).
Regarding `CC(C)n1ccc2cc(-c3noc(-c4ccccn4)n3)ccc21` [Compound 397, 3-(1-isopropyl-1H-indol-5-yl)-5-(pyridin-2-yl)-1,2,4-oxadiazole], the results for the Emax in assay [1] and in assay [2] (CHO-K1) were less than 75% and more than 75%, respectively. Further, the EC50 was more than 316 nM in assay [1] (setting [5]) and more than 10000 nM in assay [2] (S1P1).
With `CCCn1nnc2cc(-c3nc(-c4cccc(C)c4)no3)ccc21` [Compound 54, 5-[3-(3-methylphenyl)-1,2,4-oxadiazol-5-yl]-1-propyl-1H-1,2,3-benzotriazole], the values for the Emax in assay [1] (inhibition of cAMP production) and in assay [2] (setting [4]) were less than 75% and more than 75%, respectively. The EC50 in assay [1] (setting [3]) was more than 316 nM; in assay [2] (potency), more than 10000 nM.
For `Cc1ccsc1-c1noc(-c2ccc3c(c2)nnn3C2CCCC2)n1` [Compound 46, 1-cyclopentyl-5-[3-(3-methylthiophen-2-yl)-1,2,4-oxadiazol-5-yl]-1H-1,2,3-benzotriazole], the Emax in assay [1] (inhibition of cAMP production) and in assay [2] (setting [4]) was more than 75% throughout. Further, the EC50 is less than 316 nM in assay [1] (setting [3]) and less than 10000 nM in assay [2] (potency).
For `Cc1cccc(-c2nc(-c3ccc4c(c3)nnn4C3CCCC3)no2)c1` [Compound 273, 3-(1-cyclopentyl-1H-benzo[d][1,2,3]triazol-5-yl)-5-(m-tolyl)-1,2,4-oxadiazole], the Emax in assay [1] (inhibition of cAMP production) and in assay [2] (setting [4]) was less than 75% each time. Also, the results for the EC50 in assay [1] (setting [3]) and in assay [2] (potency) were more than 316 nM and more than 10000 nM, respectively.
Take `C=CCNc1ccc(-c2nc(-c3ccc4[nH]c(=O)oc4c3)no2)cc1C#N` [Compound 189, 2-(allylamino)-5-(3-(2-oxo-2,3-dihydro-benzo[d]oxazol-6-yl)-1,2,4-oxadiazol-5-yl)benzonitrile]: the Emax in assay [1] (inhibition of cAMP production) and in assay [2] (setting [4]) was more than 75% throughout. For the same compound, the EC50 in assay [1] (setting [3]) is less than 316 nM; in assay [2] (potency), less than 10000 nM.
For the compound `COc1cc(NC(C)=O)ccc1-c1noc(-c2ccc3nonc3c2)n1` [Compound 533, N-{4-[5-(2,1,3-benzoxadiazol-5-yl)-1,2,4-oxadiazol-3-yl]-3-methoxy-phenyl}acetamide], the Emax in assay [1] and in assay [2] (CHO-K1) was less than 75% throughout. The EC50 in assay [1] (setting [5]) is more than 316 nM; in assay [2] (S1P1), more than 10000 nM.
Turning to `Cc1nc2cc(-c3nc(-c4ccc5c(c4)nnn5C(C)C)no3)ccc2[nH]1` [Compound 571, 5-[5-(2-methyl-1H-1,3-benzodiazol-5-yl)-1,2,4-oxadiazol-3-yl]-1-(propan-2-yl)-1H-1,2,3-benzotriazole], the Emax in assay [1] is more than 75%; in assay [2] (CHO-K1) it was less than 75%. The EC50 in assay [1] (setting [5]) was less than 316 nM; in assay [2] (S1P1) it was less than 10000 nM.
